Key:
LacS [1] = target: T1, LacS (Saccharolobus solfataricus, UniProt P22498); experiment: inhibition of oNPG hydrolysis, A420; assay type: biochemical; set-up: recombinant full-length LacS; purified for in vitro assay; lacS also integrated in E. coli BW25113 (BWLacS); conditions: buffer Z, oNPG substrate, 37°C, 10 min
T1 sequence (P22498 1-489): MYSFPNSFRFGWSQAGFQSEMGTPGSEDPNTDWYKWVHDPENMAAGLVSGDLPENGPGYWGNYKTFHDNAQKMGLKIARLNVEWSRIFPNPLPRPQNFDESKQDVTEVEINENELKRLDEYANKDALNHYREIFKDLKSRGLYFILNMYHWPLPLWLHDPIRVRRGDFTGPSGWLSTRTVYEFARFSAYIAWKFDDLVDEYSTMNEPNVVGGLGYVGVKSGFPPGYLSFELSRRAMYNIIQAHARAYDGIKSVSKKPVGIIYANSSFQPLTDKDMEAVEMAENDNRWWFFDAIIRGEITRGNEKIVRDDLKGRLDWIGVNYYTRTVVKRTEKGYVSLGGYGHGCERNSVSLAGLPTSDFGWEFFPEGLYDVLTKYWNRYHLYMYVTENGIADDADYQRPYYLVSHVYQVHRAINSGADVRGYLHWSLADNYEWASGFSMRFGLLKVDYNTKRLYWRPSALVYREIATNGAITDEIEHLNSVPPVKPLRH

LacS [2] = target: T1, LacS; experiment: blue-white colony assay on LB agar, E. coli BWLacS; assay type: cell-based; set-up: lacS also integrated in E. coli BW25113 (BWLacS); conditions: 40 μg/mL X-GAL, 1 mM L-arabinose

With OC[C@H]1NC[C@H](O)[C@@H](O)[C@@H]1O [1-DNJ] the LacS inhibition rate (LacS [1]) was 1-DNJ was found able to inhibit LacS on its o-nitrophenyl-β-D-galactopyranoside (oNPG) hydrolysis activity.

For OC[C@H]1NC(O)[C@@H](O)[C@@H](O)[C@@H]1O (stereo partly drawn) [MJ], the LacS inhibition rate (LacS [1]; unstable MJ tested as reaction mixture of purified GutB1 with ADM and NAD+, not isolated) was “MJ was also found to inhibit the activity of LacS (Figure S3)”.

With OC[C@H]1O[C@@H](Oc2c[nH]c3ccc(Br)c(Cl)c23)[C@H](O)[C@@H](O)[C@H]1O [X-GAL] the “blue-white colony assay on LB agar, E. coli BWLacS” value (LacS [2]) was “inhibitory effect of 1-DNJ on the LacS activity toward 5-bromo-4-chloro-3-indolyl β-D-galactopyranoside (X-GAL)”.

— article PMC4338435, “Design and Application of a Novel High-throughput Screening Technique for 1-Deoxynojirimycin” (Scientific Reports, 2015)
